The results in this text go back to article PMC9775004 (Biosensors, 2022).

One test deals with FILLac10N0C. Kind of test: FRET emission ratio (Venus to mTFP) response of purified FILLac10N0C. The class given is binding, Salmonella enterica serovar Typhimurium LT2. How it is done: The FILLac expression vectors were constructed based on the plasmid pETDuet-mTFP-Venus carrying mTFP gene and Venus gene. The original STlldR gene, its truncated variants or variants with artificial linkers were inserted between the mTFP gene and Venus gene by T5 exonuclease DNA assembly method (TEDA) to construct pETDuet-FILLac0N0C and its variants.
The purified FILLac and different compounds were diluted with 50 mM Tris-HCl buffer (pH 7.4), and then mixed at a volume ratio of 3:1 into a black 96-well microplate for a total detection volume of 100 μL. The final concentration of FILLac in the reaction mixture was 1 μM. The fluorescence intensities of FILLac at 485 nm (mTFP) and 528 nm (Venus) were detected by using an EnSight multifunctional microplate detector (PerkinElmer, USA) with excitation at 430 nm. […] The maximum ratio changes (ΔRmax) were calculated according to the following formula:(2) ΔRmax=−Rmax−Rmin/Rmin. […]

The subject of a further test is PaLldR. Kind of test: Fluorescence-based thermal shift (FTS) assay with PaLldR. The class given is binding, Pseudomonas aeruginosa PAO1. To be noted: 1 mM compound, 10 μM LldR.
The next test addresses T1, EcLldR (Escherichia coli, UniProt P0ACL7).
T1 construct: His tag (inferred from pET28a and HisTrap purification); made in house; host or cells: E. coli BL21 (DE3)
Kind of test: Fluorescence-based thermal shift (FTS) assay with EcLldR. The class given is binding, E. coli MG1655. Conditions: 1 mM compound, 10 μM LldR.

A further test deals with PfLldR. Kind of test: Fluorescence-based thermal shift (FTS) assay with PfLldR. The class given is binding, P. fluorescens A506. Conditions: 1 mM compound, 10 μM LldR.

Where two headings read alike, the source gives them in different places.

T1 sequence (P0ACL7 whole entry): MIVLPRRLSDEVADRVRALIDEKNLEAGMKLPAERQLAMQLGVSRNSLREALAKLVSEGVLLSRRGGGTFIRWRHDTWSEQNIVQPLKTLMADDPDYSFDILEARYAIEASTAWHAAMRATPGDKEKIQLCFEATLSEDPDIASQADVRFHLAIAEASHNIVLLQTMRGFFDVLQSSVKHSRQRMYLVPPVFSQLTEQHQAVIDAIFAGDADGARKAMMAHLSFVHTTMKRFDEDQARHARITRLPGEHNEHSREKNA
Method for EcLldR: (§1) The gene STlldR encoding LldR of S. Typhimurium LT2 (STLldR) was amplified from genome of the strain, and then ligated into the plasmid pET28a to construct pET28a-STlldR. The recombinant plasmid pET28a-STlldR was transformed into E. coli BL21 (DE3) for STLldR expression. The expression strain was cultured in LB medium at 37 °C until an optical density at 600 nm (OD600) of 0.6 and induced with 1 mM isopropyl-β-D-thiogalactoside (IPTG) at 16 °C for 12 h. […] The purified STLldR was analyzed by 13% sodium dodecyl sulfate-polyacrylamide gel electrophoresis (SDS-PAGE). The protein concentration was determined using a Bradford protein assay kit (Sangon, Shanghai, China), and stored at –80 °C. […]
(§2) FTS assays were performed using a LightCycler 480 system (Roche, Indianapolis, IN, USA) with the filter set to excitation wavelength 465 nm and emission wavelength 580 nm for SYPRO orange. […] The melting temperature (Tm) of LldR was calculated from the negative first derivative value of the raw fluorescence data. Thermal shift temperature (ΔTm) was calculated by subtracting the Tm of the control from the Tm of LldR with the addition of different compounds. […]
Method for PaLldR: as §1, §2
Method for PfLldR: as §1, §2

In the case of `O=C(O)CCC(=O)C(=O)O` [2-ketoglutarate], the “fluorescence emission ratio change of FILLac10N0C (specificity analysis)” value (from here on “fluorescence emission ratio change”) in the test with FILLac10N0C (50 μM compound) is on record as “did not change the emission ratio”. In the case of `[Ca+2]` [Ca^2+], the “fluorescence emission ratio change” value in the test with FILLac10N0C (50 μM compound) is given as “did not change the emission ratio”. On the same count and under the same terms, as for `O=C(O)CC[C@@H](O)C(=O)O` [D-2-hydroxyglutarate], the entry is “did not change the emission ratio”. Take `C[C@@H](O)C(=O)O` [D-lactate]: the “change in Tm (ΔTm) of PaLldR” value with PaLldR is listed as “significant changes in Tm”. Also, the “change in Tm (ΔTm) of EcLldR” value at EcLldR is reported as “significant changes in Tm”. Moreover, the “change in Tm (ΔTm) of PfLldR” value in the test on PfLldR is on record as “significant changes in Tm”.

In the case of `O=C(O)C[C@@H](O)C(=O)O` [D-malate], the “fluorescence emission ratio change” value in the test on FILLac10N0C (50 μM compound) is “did not change the emission ratio”. As for `[K+]` [K^+], in the test with FILLac10N0C, the “fluorescence emission ratio change” value is given as “did not change the emission ratio”. For `O=C(O)CC[C@H](O)C(=O)O` [L-2-hydroxyglutarate], in the test on FILLac10N0C (50 μM compound), the “fluorescence emission ratio change” value is given as “did not change the emission ratio”. Same read-out and setting: the entry for `N[C@@H](CCC(=O)O)C(=O)O` [L-glutamate] is “did not change the emission ratio”.

As to `C[C@H](O)C(=O)O` [L-lactate], in the test with PaLldR, the “change in Tm (ΔTm) of PaLldR” value is given as “significant changes in Tm”. Moreover, at EcLldR, the “change in Tm (ΔTm) of EcLldR” value is reported as “significant changes in Tm”. Also, in the test on PfLldR, the “change in Tm (ΔTm) of PfLldR” value is listed as “significant changes in Tm”. As to `O=C(O)C[C@H](O)C(=O)O` [L-malate], in the test with FILLac10N0C (50 μM compound), the “fluorescence emission ratio change” value is given as “did not change the emission ratio”. For the compound `[Mg+2]` [Mg^2+], the “fluorescence emission ratio change” value with FILLac10N0C (50 μM compound) is reported as “did not change the emission ratio”. On the same count and under the same terms, as for `N` [NH4^+], the entry is “did not change the emission ratio”; as for `[Na+]` [Na^+], “did not change the emission ratio”; as for `CC(=O)O` [acetate], “did not change the emission ratio”. Still for that read-out and setting: the entry for `O=C(O)/C=C(/CC(=O)O)C(=O)O` [cis-aconitate] is “did not change the emission ratio”; for `O=C(O)CC(O)(CC(=O)O)C(=O)O` [citrate] it is “did not change the emission ratio”; for `O=C(CO)[C@@H](O)[C@H](O)[C@H](O)CO` [fructose] it is “did not change the emission ratio”.

`O=C(O)/C=C/C(=O)O` [fumarate]: the “fluorescence emission ratio change” value in the test on FILLac10N0C (50 μM compound) is listed as “did not change the emission ratio”. As to `OC[C@H]1OC(O)[C@H](O)[C@@H](O)[C@@H]1O` (stereo partly shown) [glucose], the “fluorescence emission ratio change” value with FILLac10N0C (50 μM compound) was “did not change the emission ratio”. The same measure, in the same setting: the entry for `O=CC(=O)O` [glyoxylate] is “did not change the emission ratio”; for `O=C(O)CC(=O)C(=O)O` [oxaloacetate] it is “did not change the emission ratio”. Take `CC(=O)C(=O)O` [pyruvate]: the “fluorescence emission ratio change” value in the test on FILLac10N0C (50 μM compound) is “did not change the emission ratio”. Besides, the “effect on detection of L-lactate by FILLac10N0C” value in the test with FILLac10N0C (50 μM of the compound present in the L-lactate dose-response) is recorded as “not affected”. Turning to `O=C(O)CCC(=O)O` [succinate], the “fluorescence emission ratio change” value with FILLac10N0C is “did not change the emission ratio”.
